Source: patent US9409892B2, “4-hydroxy-isoquinoline compounds as HIF hydroxylase inhibitors” (FIBROGEN, INC., priority 2012, dated 2016)

Experiments:
PHD1 (EGLN2) = PHD1 (EGLN2) (Homo sapiens (Human), UniProt Q96KS0); assay: HIF-PH assay (14CO2 capture), PHD1 enzyme inhibition; assay type: biochemical; details: Table 1; for IC50: individual measurement, read-out: IC50 (μM) PHD1; for PHD2/PHD1: ratio of the IC50 of the compound for each enzyme
PHD2 (EGLN1) = PHD2 (EGLN1) (Homo sapiens (Human), UniProt Q9GZT9); assay: HIF-PH assay (14CO2 capture), PHD2 enzyme inhibition; assay type: biochemical; details: Table 1; individual measurement; read-out: IC50 (μM) PHD2
Sequence of PHD2 (EGLN1) (Q9GZT9 whole entry): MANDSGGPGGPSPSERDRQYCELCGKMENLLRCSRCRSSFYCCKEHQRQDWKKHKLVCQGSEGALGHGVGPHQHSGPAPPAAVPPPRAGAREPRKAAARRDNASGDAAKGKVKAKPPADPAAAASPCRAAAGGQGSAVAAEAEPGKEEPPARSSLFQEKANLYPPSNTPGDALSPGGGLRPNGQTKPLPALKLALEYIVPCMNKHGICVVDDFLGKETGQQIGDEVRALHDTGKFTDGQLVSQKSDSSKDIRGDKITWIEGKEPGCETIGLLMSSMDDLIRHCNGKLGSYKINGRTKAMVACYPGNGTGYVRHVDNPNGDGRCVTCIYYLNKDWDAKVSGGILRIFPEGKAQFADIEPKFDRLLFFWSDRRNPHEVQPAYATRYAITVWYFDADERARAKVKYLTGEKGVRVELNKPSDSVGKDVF

Sequence of PHD1 (EGLN2) (Q96KS0 whole entry): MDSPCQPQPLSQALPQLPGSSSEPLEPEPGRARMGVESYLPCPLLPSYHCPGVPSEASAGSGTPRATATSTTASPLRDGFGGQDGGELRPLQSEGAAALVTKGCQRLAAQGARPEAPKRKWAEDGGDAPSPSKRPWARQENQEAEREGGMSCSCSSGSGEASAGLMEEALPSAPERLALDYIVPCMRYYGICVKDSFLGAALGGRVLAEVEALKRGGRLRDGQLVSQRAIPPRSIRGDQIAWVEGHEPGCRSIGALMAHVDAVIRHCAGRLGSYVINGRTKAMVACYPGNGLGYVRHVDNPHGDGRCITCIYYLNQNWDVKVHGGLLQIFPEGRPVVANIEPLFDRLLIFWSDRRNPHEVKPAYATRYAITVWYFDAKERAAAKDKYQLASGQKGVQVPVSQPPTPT

| IC50 (PHD1 (EGLN2)) [µM] | PHD2/PHD1 (PHD1 (EGLN2)) | IC50 (PHD2 (EGLN1)) [µM] | SMILES |
| --- | --- | --- | --- |
| 4.51 | 6 | 25.1 | N#Cc1nc(C(=O)N[C@@H](CC(=O)O)c2cccnc2)c(O)c2ccc(Oc3ccccc3)cc12 [Compound 175, 3-(S)-[(1-Cyano-4-hydroxy-7-phenoxy-isoquinoline-3-carbonyl)-amino]-3-pyridin-3-yl-propionic acid] |
| 4.08 | 6 | 24.6 | N#Cc1nc(C(=O)N[C@H](CC(=O)O)c2cccnc2)c(O)c2ccc(Oc3ccccc3)cc12 [Compound 176, 3-(R)-[(1-Cyano-4-hydroxy-7-phenoxy-isoquinoline-3-carbonyl)-amino]-3-pyridin-3-yl-propionic acid] |
| 0.75 | 14 | 10.5 | N#Cc1nc(C(=O)NCC(C(=O)O)C2CC2)c(O)c2ccc(Oc3ccccc3F)cc12 (stereo not drawn) [Compound 177, 3{-[1-Cyano-7-(2-fluoro-phenoxy)-4-hydroxy-isoquinoline-3-carbonyl]-amino}-2-cyclopropyl-propionic acid] |
| 0.95 | 9 | 8.54 | N#Cc1nc(C(=O)NCC(C(=O)O)C2CC2)c(O)c2ccc(Oc3ccc(F)cc3)cc12 (stereo not drawn) [Compound 179, 3{-[1-Cyano-7-(4-fluoro-phenoxy)-4-hydroxy-isoquinoline-3-carbonyl]-amino}-2-cyclopropyl-propionic acid] |
| 4.57 | 6 | 28.9 | N#Cc1nc(C(=O)NCC(C(=O)O)C2CC2)c(O)c2ccc(Oc3c(F)cccc3F)cc12 (stereo not drawn) [Compound 180, 3{-[1-Cyano-7-(2,6-difluoro-phenoxy)-4-hydroxy-isoquinoline-3-carbonyl]-amino}-2-cyclopropyl-propionic acid] |
| 1.45 | 7 | 9.45 | N#Cc1nc(C(=O)NCC(C(=O)O)c2ccc(F)cc2)c(O)c2ccc(Oc3ccccc3)cc12 (stereo not drawn) [Compound 181, 3-[(1-Cyano-4-hydroxy-7-phenoxy-isoquinoline-3-carbonyl)-amino]-2-(4-fluoro-phenyl)-propionic acid] |
| 1.81 | 7 | 11.9 | N#Cc1nc(C(=O)NCC(C(=O)O)c2ccccc2F)c(O)c2ccc(Oc3ccccc3)cc12 (stereo not drawn) [Compound 182, 3-[(1-Cyano-4-hydroxy-7-phenoxy-isoquinoline-3-carbonyl)-amino]-2-(2-fluoro-phenyl)-propionic acid] |
| 1.63 | 8 | 12.6 | CC(C)CC(CNC(=O)c1nc(C#N)c2cc(Oc3ccccc3)ccc2c1O)CC(=O)O (stereo not drawn) [Compound 183, 3-{[(1-Cyano-4-hydroxy-7-phenoxy-isoquinoline-3-carbonyl)-amino]-methyl}-5-methyl-hexanoic acid] |
| 1.38 | 9 | 12.6 | CC(CCC(=O)O)NC(=O)c1nc(C#N)c2cc(Oc3ccccc3)ccc2c1O (stereo not drawn) [Compound 184, 4-[(1-Cyano-4-hydroxy-7-phenoxy-isoquinoline-3-carbonyl)-amino]-pentanoic acid] |

Further lines, the molecule ahead of its results:

| SMILES | IC50 (PHD1 (EGLN2)) [µM] | PHD2/PHD1 (PHD1 (EGLN2)) | IC50 (PHD2 (EGLN1)) [µM] |
| --- | --- | --- | --- |
| N#Cc1nc(C(=O)NC(CC(=O)O)c2cccc(Cl)c2)c(O)c2ccc(Oc3ccccc3)cc12 (stereo not drawn) [Compound 165, 3-(3-Chloro-phenyl)-3-[(1-cyano-4-hydroxy-7-phenoxy-isoquinoline-3-carbonyl)-amino]-propionic acid] | 1.51 | 19 | 28.1 |
| N#Cc1nc(C(=O)NCC(C(=O)O)C2CC2)c(O)c2ccc(Oc3ccccc3)cc12 (stereo not drawn) [Compound 166, 3-[(1-Cyano-4-hydroxy-7-phenoxy-isoquinoline-3-carbonyl)-amino]-2-cyclopropyl-propionic acid] | 0.42 | 29 | 12.2 |
| O=C(NCC(C(=O)O)C1CC1)c1ncc2cc(Oc3ccccc3)ccc2c1O (stereo not drawn) [Compound 167, 2-Cyclopropyl-3-[(4-hydroxy-7-phenoxy-isoquinoline-3-carbonyl)-amino]-propionic acid] | 9.57 | 10 | 100 |
| O=C(NCC(C(=O)O)c1ccccc1)c1ncc2cc(Oc3ccccc3)ccc2c1O (stereo not drawn) [Compound 169, 3-[(4-Hydroxy-7-phenoxy-isoquinoline-3-carbonyl)-amino]-2-phenyl-propionic acid] | 26.6 | 6 | 153 |
| N#Cc1nc(C(=O)N[C@@H](CC(=O)O)c2ccccc2F)c(O)c2ccc(Oc3ccccc3)cc12 [Compound 170, 3-(S)-[(1-Cyano-4-hydroxy-7-phenoxy-isoquinoline-3-carbonyl)-amino]-3-(2-fluoro-phenyl)-propionic acid] | 2.76 | 12 | 32.2 |
| Cc1ccccc1[C@H](CC(=O)O)NC(=O)c1nc(C#N)c2cc(Oc3ccccc3)ccc2c1O [Compound 171, 3-(S)-[(1-Cyano-4-hydroxy-7-phenoxy-isoquinoline-3-carbonyl)-amino]-3-o-tolyl-propionic acid] | 5.26 | 9 | 45.7 |
| N#Cc1ccc([C@H](CC(=O)O)NC(=O)c2nc(C#N)c3cc(Oc4ccccc4)ccc3c2O)cc1 [Compound 172, 3-(S)-[(1-Cyano-4-hydroxy-7-phenoxy-isoquinoline-3-carbonyl)-amino]-3-(4-cyano-phenyl)-propionic acid] | 2.83 | 10 | 27.6 |
| N#Cc1nc(C(=O)NC(CC(=O)O)c2ccc(Cl)cc2)c(O)c2ccc(Oc3ccccc3)cc12 (stereo not drawn) [Compound 173, 3-(4-Chloro-phenyl)-3-[(1-cyano-4-hydroxy-7-phenoxy-isoquinoline-3-carbonyl)-amino]-propionic acid] | 3.97 | 5 | 20.9 |
| N#Cc1nc(C(=O)NC(CC(=O)O)c2cccnc2)c(O)c2ccc(Oc3ccccc3)cc12 (stereo not drawn) [Compound 174, 3-[(1-Cyano-4-hydroxy-7-phenoxy-isoquinoline-3-carbonyl)-amino]-3-pyridin-3-yl-propionic acid] | 6.75 | 6 | 39.4 |
